Experimental data: patent US8648110B2, “2-aryl-acetic acids, their derivatives and pharmaceutical compositions containing them” (Dompe Pha.R.Ma S.p.A., priority 2003, dated 2014)

Assays:
CXCR1 = target: T1, CXCR1 (Homo sapiens, UniProt P25024); test: IL-8 induced PMN chemotaxis (CXCR1); format: cell-based; conditions: for inhibition at 0.01 µM: compound c = 10^−8 M, IL-8 induced human PMN chemotaxis; for IL-8 inhibitory activity: result in words, IL-8 induced chemotaxis
T1 construct: endogenous in cells; host or cells: human polymorphonucleate leukocytes (PMNs) isolated from blood of healthy volunteers
T1 sequence (P25024 1-350): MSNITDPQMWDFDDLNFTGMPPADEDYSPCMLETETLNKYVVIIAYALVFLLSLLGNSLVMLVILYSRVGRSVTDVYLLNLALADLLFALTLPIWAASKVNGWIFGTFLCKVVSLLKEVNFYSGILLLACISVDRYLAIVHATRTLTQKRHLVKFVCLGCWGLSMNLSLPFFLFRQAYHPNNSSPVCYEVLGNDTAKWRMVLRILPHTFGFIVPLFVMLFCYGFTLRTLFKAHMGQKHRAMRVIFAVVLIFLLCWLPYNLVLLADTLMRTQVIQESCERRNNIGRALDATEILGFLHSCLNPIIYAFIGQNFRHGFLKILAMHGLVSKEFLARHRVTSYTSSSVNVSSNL

CXCR2 = target: T2, CXCR2 (Homo sapiens, UniProt P25025); test: GRO-α induced PMN chemotaxis (CXCR2); format: cell-based; conditions: compound c = 10^−8 M
T2 construct: endogenous in cells; host or cells: human polymorphonucleate leukocytes (PMNs) isolated from blood of healthy volunteers
T2 sequence (P25025 1-360): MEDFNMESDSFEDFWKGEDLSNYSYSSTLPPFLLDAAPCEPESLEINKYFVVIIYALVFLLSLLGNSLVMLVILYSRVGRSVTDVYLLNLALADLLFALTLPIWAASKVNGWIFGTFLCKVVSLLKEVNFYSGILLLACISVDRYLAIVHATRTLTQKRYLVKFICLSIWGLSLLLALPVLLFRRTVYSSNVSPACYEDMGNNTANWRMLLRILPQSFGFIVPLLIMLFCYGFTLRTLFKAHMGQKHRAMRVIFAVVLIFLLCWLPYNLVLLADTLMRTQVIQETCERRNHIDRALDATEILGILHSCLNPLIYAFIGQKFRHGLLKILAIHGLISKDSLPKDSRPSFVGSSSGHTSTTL
Description: The compounds of the invention of formula I were evaluated in vitro for their ability to inhibit chemotaxis of polymorphonucleate leukocytes (hereinafter referred to as PMNs) and monocytes induced by the fractions of IL-8 and GRO-α. For this purpose, in order to isolate the PMNs from heparinized human blood, taken from healthy adult volunteers, mononucleates were removed by means of sedimentation on dextran (according to the procedure disclosed by W. J. Ming et al., J. Immunol., 138, 1469, 1987) and red blood cells by a hypotonic solution. The cell viability was calculated by exclusion with Trypan blue, whilst the ratio of the circulating polymorphonucleates was estimated on the cytocentrifugate after staining with Diff Quick.
During the chemotaxis assay (according to W. Falket et al., J. Immunol. Methods, 33, 239, 1980) PVP-free filters with a porosity of 5 μm and microchambers suitable for replication were used.
The compounds of the invention of formula (I) and (Ia) were evaluated at a concentration ranging between 10^−6 and 10^−10 M; for this purpose they were added, at the same concentration, both to the lower pores and the upper pores of the microchamber. Evaluation of the ability of the compounds of the invention of formula I to inhibit IL-8-induced chemotaxis of human monocytes was carried out according to the method disclosed by Van Damme J. et al. (Eur. J. Immunol., 19, 2367, 1989).
The biological activity of compounds showing high potency either as inhibitors of IL-8 induced PMN chemotaxis (CXCR1) or as dual inhibitors of IL-8 and GRO-α induced PMN chemotaxis (CXCR1/CXCR2) is reported in Table 1.

| Compound | inhibition at 0.01 µM (CXCR1) [%] | inhibition at 0.01 µM (CXCR2) [%] | IL-8 inhibitory activity (CXCR1) |
| --- | --- | --- | --- |
| Cc1c(CC(=O)O)cccc1C(C)C [Example 2, (3-isopropyl-2-methylphenyl)acetic acid] | 62 ± 8 | 5 ± 10 |  |
| CCC(=O)c1cccc(CC(=O)O)c1Cl [Example 3, (2-chloro-3-propionylphenyl)acetic acid] | 67 ± 14 | 27 ± 8 |  |
| Cc1cc(CC(C)C)ccc1CC(=O)O [Example 4, (4-isobutyl-2-methylphenyl)acetic acid] | 60 ± 10 | 4 ± 8 |  |
| CC(=O)c1ccc(CC(=O)O)n1C [Example 11, (5-acetyl-1-methyl-1H-pyrrol-2-yl)acetic acid] | 60 ± 7 | 65 ± 5 |  |
| CC(C)C(=O)c1ccc(CC(=O)O)n1C [Example 12, (5-isobutyryl-1-methyl-1H-pyrrol-2-yl)acetic acid] | 58 ± 11 | 65 ± 11 |  |
| CC(=O)c1ccc(CC(N)=O)n1C [Example 19, (5-acetyl-1-methyl-1H-pyrrol-2-yl)acetamide] | 54 ± 10 | 44 ± 9 |  |
| CC(=O)c1ccc(CC(=O)NS(C)(=O)=O)n1C [Example 41, (5-acetyl-1-methyl-1H-pyrrol-2-yl)acetyl methanesulfonamide] | 50 ± 10 | 46 ± 14 |  |
| Cc1cc(CC(C)C)ccc1CC(=O)NS(C)(=O)=O [Example 42, (4-isobutyl-2-methylphenyl)acetyl methanesulfonamide] | 67 ± 14 | 0 |  |
| Cc1cc(NS(=O)(=O)C(F)(F)F)ccc1CC(=O)NS(C)(=O)=O [Example 43, {2-methyl-4-[(trifluoromethanesulfonyl)amino]phenyl}acetyl methanesulfonamide] | 60 ± 7 | 52 ± 5 |  |
| CC(C)Cc1ccc(CC(=O)O)cc1 [ibufenac, 2-[4-isobutylphenyl]acetic acid, reference compound] |  |  | do not exert any IL-8 inhibitory activity |
| O=C(O)Cc1cccc(C(=O)c2ccccc2)c1 [ketofenac, 2-[3-benzoylphenyl]acetic acid, reference compound] |  |  | do not exert any IL-8 inhibitory activity |
